Reference: patent publication US20100210575A1, “STRUCTURING EFFECT OF CHOLESTEROL IN PEG-PHOSPHOLIPID MICELLES, DRUG DELIVERY OF AMPHOTERICIN B, AND COMBINATION ANTIFUNGALS” (WISCONSIN ALUMNI RESEARCH FOUNDATION, priority 2007, published 2010)

How the values were obtained:
4% BSA = 4% BSA (Bos taurus, UniProt P02769); assay: Electronic absorption kinetics at 412 nm upon dilution in serum albumin; assay type: physicochemical, bovine; conditions: AmB 10 μg/mL
Experimental: Electronic absorption kinetics. Stock solutions containing AmB (micelle encapsulated or dissolved in DMSO) were added to 4% BSA, buffered to pH 7.0 with 10 mM HEPES. The final concentration of AmB was 10 μg/mL. For AmB dissolved in DMSO, the final DMSO content was less than 0.2%. Absorbance spectra were recorded from 300 to 450 nm at room temperature by using the Cary 50 spectrophotometer (Varian, Palo Alto, Calif.). Sequential spectra were acquired at 15 second intervals for the first 5 min; and at 1 minute intervals for an additional 40 minutes. A scan for baseline absorbance was taken before addition of AmB and was subtracted from each spectrum. The change in absorbance at 412 nm, […] was fit to a first-order process of the form A∞−At=a.e^−k.t using non-linear regression (SigmaPlot v.9.0).

[1] = Critical aggregation concentration (CAC) of AmB; assay type: physicochemical
[2] = AmB release from PEG-DSPE micelles using equilibrium dialysis; assay type: physicochemical; conditions: 25° C., 30 μg/mL AmB
Experimental: AmB release from PEG-DSPE micelles using equilibrium dialysis. AmB stock solutions (micelle encapsulated or dissolved in DMSO) were diluted to 30 μg/mL in HEPES buffer or in 4% BSA. These solutions were put in dialysis cassettes (MWCO 7000 g/mol, Pierce) and were placed in excess buffer (5 mM HEPES, pH 7.0). The MWCO of the dialysis membrane was chosen to allow for diffusion of AmB (molecular weight 924.1) while retaining large molecules such as bovine serum albumin (molecular weight 66 kDa) and intact micelles (molecular weight >100 kDa). Near-sink conditions for AmB were maintained by performing the release experiment in a 100-fold excess dialysis buffer. Because AmB is susceptible to degradation, the dialysis buffer was degassed overnight and 20 μg/mL propyl gallate was added as an antioxidant (15, 16). At predetermined time intervals, 100 μL samples were taken and AmB concentration in dialysis cassettes was determined using reversed-phase HPLC. […]
AmB release was fit to a first-order process of the form At/A0=a.e^−k.t by non-linear regression (SigmaPlot v.9.0). […] The half-life t1/2 for AmB release was calculated using t1/2=0.693/k.
For determination of AmB content, 15 μL samples were injected into 4.6 mm×150 mm Eclipse XDB-C8 reversed-phase column (Agilent Technologies) and AmB absorbance detected at 412 nm using the diode array detector. […]

[3] = tested on: C. albicans 98-17 and C. albicans 98-234; assay: In vitro susceptibility, broth microdilution, both isolates; assay type: cell-based; conditions: Candida albicans
Experimental: (§1) C. albicans 98-17 and C. albicans 98-234 were maintained on SDA plates. Susceptibility of yeast isolates was performed using broth microdilution in RPMI-1640 (supplemented with 0.165 M morpholinepropanesulfonic acid, buffered to pH 7.0) according to procedures recommended in NCCLS M27-A2 (25). Test drug solutions were incubated with yeast inoculum at 35° C. in 96-well plates for a 24 h period. All measurements were done in triplicate. Percent yeast growth relative to drug-free control was determined by measuring optical density (OD) at 650 nm, using the Microplate EL 312e plate reader. […] The MIC values were expressed as a mean of three determinations.
(§2) Calculation of a combination index was done in two steps. First, inhibition of fungal growth in response to varying concentrations of single-drug was fit to median-effect function:
(§3) where fa is the mean growth inhibition, relative to drug-free control, Dm is the drug concentration for a 50% growth inhibition, and m is the slope-factor describing the dose-response curve. Parameter Dm and m for each drug were estimated by non-linear regression using SigmaPlot (v. 9.0).

C. albicans 98-17 = assay: In vitro susceptibility, broth microdilution (MIC, median-effect fit); assay type: cell-based; conditions: Candida albicans, 9817, strain 98-17
Experimental: as §1, §2, §3

C. albicans 98-234 = assay: as above; assay type: cell-based; conditions: Candida albicans, 98234, strain 98-234
Experimental: as §1, §2, §3

[4] = >95% inhibition, 24 h, 35° C., read-out: Minimum Inhibitory Concentrations (MIC)
[5] = median-effect fit, read-out: Dm × 10^3 (concentration for 50% growth inhibition)

4% BSA, sequence (P02769 25-607): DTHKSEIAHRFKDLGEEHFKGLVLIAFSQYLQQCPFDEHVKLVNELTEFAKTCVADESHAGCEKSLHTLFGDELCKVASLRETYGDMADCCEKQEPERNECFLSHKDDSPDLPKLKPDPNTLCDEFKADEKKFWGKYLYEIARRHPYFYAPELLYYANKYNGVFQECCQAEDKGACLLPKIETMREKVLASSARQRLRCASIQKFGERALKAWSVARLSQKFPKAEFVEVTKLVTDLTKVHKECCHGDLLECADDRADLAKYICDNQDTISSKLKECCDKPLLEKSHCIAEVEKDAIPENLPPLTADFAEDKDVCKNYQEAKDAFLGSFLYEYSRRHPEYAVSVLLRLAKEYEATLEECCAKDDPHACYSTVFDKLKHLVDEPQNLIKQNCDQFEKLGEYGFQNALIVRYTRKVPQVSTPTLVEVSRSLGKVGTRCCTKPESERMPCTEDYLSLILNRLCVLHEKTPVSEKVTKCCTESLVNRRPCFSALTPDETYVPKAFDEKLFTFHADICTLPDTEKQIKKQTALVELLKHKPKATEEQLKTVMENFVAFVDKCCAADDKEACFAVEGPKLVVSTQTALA

A∞ (absorbance at 412 nm) (4% BSA) | 100 k (absorbance change at 412 nm) (4% BSA; room temperature) [min⁻¹] | CAC ([1]; in 4% BSA) [µM] | CAC ([1]; in HEPES) [μMA] | MIC ([3]; both isolates, 24 h) [µg/mL] | IC50 ([3]; range over isolates, read-out: Dm) [µg/mL] | MIC (C. albicans 98-17; [4]) [µg/mL] | IC50 (C. albicans 98-17; [5]) [µg/mL] | MIC (C. albicans 98-234; [4]) [µg/mL] | IC50 (C. albicans 98-234; [5]) [µg/mL] | Structure (SMILES) | 100 · k (AmB release, first-order fit) ([2]; 5 mM HEPES) [h⁻¹] | 100 · k (AmB release, first-order fit) ([2]; 4% BSA) [h⁻¹]
0.77 | 3.25 ± 0.23 | 10 | 1 | – | – | – | – | – | – | C[C@@H]1[C@H](O)[C@@H](C)/C=C/C=C/C=C/C=C/C=C/C=C/C=C/[C@H](O[C@@H]2O[C@H](C)[C@@H](O)[C@H](N)[C@@H]2O)C[C@@H]2O[C@](O)(C[C@@H](O)C[C@@H](O)[C@H](O)CC[C@@H](O)C[C@@H](O)CC(=O)O[C@H]1C)C[C@H](O)[C@H]2C(=O)O [Free AmB, Amphotericin B] | 1.01 ± 0.10 | 3.72 ± 0.04
– | – | – | – | 0.1 | 0.04 to 0.07 | 0.1 | 70.7 ± 7.3 | 0.1 | 39.8 ± 0.1 | Nc1nc(=O)[nH]cc1F [5-FC, 5-fluorocytosine] | – | –
